Results: US9695219B2, “Polypeptide having antibacterial activity and angiogenesis-inducing activity and wound-healing drug containing said polypeptide” (priority 2009, dated 2017)
Where a SMILES comes first, the peptide text is derived from it. [ ]: non-standard residue; d: D form.

Assays:
[1] = tested on: Pseudomonas aeruginosa (clinical strain 12); test: MIC measurement, broth microdilution; format: cell-based; settings: 37° C. for 20 hours; tested twice, first/second value where not matched
Description: (CLSI), but, in this Example, its measurement was carried out by a broth microdilution method in accordance with “M100-S17/M7-A7” (Performance Standards for Antimicrobial Susceptibility Testing; Seventeenth Informational Supplement, Vol. 27 No. 1) published by CLSI on January, 2007. That is, sensitivity test of agents was carried out using a microtiter plate or test tubes.
Each peptide was prepared to an optional concentration, and the solutions were serially diluted from the concentration. The polypeptide at each concentration stage was added to a microplate or test tubes, and the bacterial suspension was added thereto.

[2] = tested on: burn-ulcer model, hairless rats; test: Effect to heal burn ulcers; format: in vivo, rat; settings: 0.2 μg/μL (20 μg/wound), once a day
Description: A burn model was produced using 7-week old male hairless rats (HWY/slc), and the healing effect of the polypeptides of the present invention was examined. The burn-ulcer model was produced by contacting a red hot iron (at 100° C., φ12 mm) to the back of each rat for 5 seconds under anesthesia with ether to induce a burn. […] On the day after inducing the burn, the necrotic skin was surgically removed to obtain a burn model. After producing the burn model, the test substance was administered onto the wound site, and a covering was used to cover over that (Day 0). Only a covering was used in the Control. Thereafter, the test substance was administered once a day on every measurement day. And, on Day 6 and Day 8, the change of the area of the wound was measured by calculating measured values from a digital caliper and digital images, and the area where the burns had still not healed was measured to calculate the ratio of it relative to the area where the burns were created (Day 0). The concentration of the test substances were individually 0.2 μg/μL (20 μg/wound).

[3] = tested on: diabetes full-thickness defect flap model, hairless rats; test: Effect to heal diabetic skin ulcers in diabetes flap model; format: in vivo, rat; settings: 0.2 μg/μL
Description: For the purpose of producing a diabetes model, 7-week old male hairless rats (HWY/slc) were used, and, on the day before full-thickness defect flaps were created, the blood sugar level was measured and streptozotocin was administered once in tail vein (65 mg/kg). The full-thickness defect flap model was produced by measuring the blood sugar level of the rats on the day after the administration of streptozotocin and deciding only the individuals whose blood sugar level was not less than 300 mg/dL as the diabetes model. The full-thickness defect flaps were created by first creating on the back of each rat a pedicle flap of 2×2 cm (square) whose basal part was on its tail side, and then creating a full-thickness defect site (including dermal layer defect) of 1.4×1.4 cm (square: about 2 cm^2) in the central part of the created pedicle flap. Then, the flap sites were immediately sutured to obtain the full-thickness defect flap model. The model is a model of a diabetic intractable wound or skin ulcer, since the model also lacks dermal layer. […] Thereafter, on every measurement day, the test substance was administered once a day; the change of the area of the wound was calculated by measured values from a digital caliper and digital images; and the area where the wounds had still not healed was measured to calculate the ratio of it relative to the area where the wounds were created (Day 0).

[4] = tested on: Normal human dermal fibroblasts (NHDFs); format: cell-based
Description: Next, the effect of these polypeptides on the growth of human umbilical vein endothelial cells (HUVECs) was studied. A cell growth activity of the polypeptides was examined using Cell Counting Kit (WST-1) available from Dojindo Laboratories. As a negative control (Control), polypeptide-free group was used. Cells (human umbilical vein endothelial cells: HUVECs) were plated in a 96-well plate (0.5×10^4 cells/well/100 μL, serum 1%). About 3 hours after plating the cells, the polypeptides (1, 3, 10, 30 or 100 μg/ml) and FGF (100 ng/ml) as a positive control were individually added thereto in an amount of 100 μL. To the unstimulated group, only a medium was added in an amount of 100 μL. The plate was left to stand in a CO2 incubator for about 48 hours. Thereafter, WST-1 reagent was added to each well in an amount of 20 μL, and then the plate was left to stand in a CO2 incubator for about 2 hours. Absorbances at wavelengths of 450 nm and 620 nm were measured using Wallac 1420 ARVOsx (Program: WST-1). A value of O.D.450-O.D.620 was calculated for each measurement. […] The cell growth activity was evaluated on the basis of the ratio of Net O.D.450 of polypeptide-containing groups relative to Net O.D.450 of the unstimulated group.
Then, the effect on the growth of normal human dermal fibroblasts (NHDFs) was also studied by the same method as described above.

cut-wound model, SD rats = test: Evaluation of skin tissue in cut wound healing (HE staining); format: in vivo, rat; settings: 10 μg dropwise once a day until suture removal, skin collected Day 6
Description: A cut-wound model was produced using 7-week old male SD rats (Crl:CD), and the change in the skin tissue caused by administering the polypeptides of the present invention was evaluated. A cut wound of 30 to 36 mm was made on the back of the rats using a safety razor, and sutured at 3 points equally spaced (Day 0). Onto the suture site, 50 μL of each of the test substances which were respectively adjusted to the concentration of 200 μg/mL was added dropwise (the added amount was 10 μg). Each test substance was administered dropwise once a day till the day when the sutures were removed. On Day 3 after the suturing, the sutures were removed; and, on Day 6, the skin tissue in the cut wound site was collected to evaluate the skin by HE staining

[5] = Stability in human serum (HPLC); format: in vitro ADME; settings: 37° C.
Description: The stability of the polypeptides in serum was evaluated. In human serum (purchased from KAC Co., Ltd.), or in rat serum obtained by collecting blood from a rat, then leaving the collected blood to stand at room temperature followed by centrifugation, each of the peptides was dissolved so as to attain a final concentration of 500 μg/mL, and the obtained solutions were left to stand at 37° C. After leaving to stand for 3 min or 10 min, these solutions were subjected to HPLC chromatogram analysis to detect peaks of the decomposition products, and calculate the ratio of the concentration of the peptides which remained in the solutions relative to the starting concentration. In addition, the half-lives of the peptides in serum were also calculated.

[6] = tested on: paper disc model, Crl:CD (SD) rats; test: Ability to form granulation tissue in paper disc model; format: in vivo, rat; settings: 1, 10 or 100 μg/disc, subcutaneous, eight days
Description: Then, the ability to form granulation tissue of these polypeptides in vivo was studied. Each of the peptides which were test substances and whose concentration was respectively 25, 250 and 2500 μg/mL, the bFGF formulation whose concentration was respectively 2.5, 25 and 250 μg/mL (positive controls) or saline (negative controls) was added to a paper disc (FILTER PAPER φ8 mm, […]) in an amount of 40 μl, such that, in the final state, the dosage of each peptide was 1, 10 or 100 μg/disc. The prepared paper discs were embedded subcutaneously into the back of Crl:CD (SD) rats (male, 9-week old, obtained from Charles River Laboratories Japan, Inc.). Eight days later, the paper discs were taken out, and the granulation tissues around the paper discs were collected to determine their wet weight.

**Q.** Which “MIC, Pseudomonas aeruginosa (clinical strain 12)” value [1] does the source give for `CC[C@H](C)[C@H](NC(=O)[C@H](CC(C)C)NC(=O)[C@H](CCCCN)NC(=O)[C@@H](N)CC(C)C)C(=O)N[C@@H](Cc1ccccc1)C(=O)N[C@@H](CC(C)C)C(=O)N[C@@H](Cc1c[nH]cn1)C(=O)N[C@@H](CCCNC(=N)N)C(=O)N[C@@H](CC(C)C)C(=O)N[C@@H](CCCCN)C(=O)N[C@@H](CCCNC(=N)N)C(=O)N[C@@H](CCSC)C(=O)N[C@@H](CCCNC(=N)N)C(=O)N[C@@H](CCCCN)C(=O)N[C@@H](CCCNC(=N)N)C(=O)N[C@@H](CC(C)C)C(=O)N[C@H](CCCCN)C(=O)N[C@@H](CCCNC(=N)N)C(=O)N[C@@H](CCCCN)C(N)=O` [SR-08] (H-LKLIFLHRLKRMRKRL[dK]RK-NH2; N-terminus assumed) here?
**A.** 16/32

**Q.** What about the “Healing effect in burn-ulcer model (unhealed area ratio Day 6 and Day 8, FIGS. 14 and 15)” value [2] of the same compound?
**A.** showed a therapeutic effect also in the burn-ulcer model

**Q.** What about the “Number of days until complete healing (FIGS. 12 and 13)” value [3] of the same compound?
**A.** significantly smaller than the solvent control group

**Q.** And the “Concentration above which the polypeptide tended to exhibit toxicity, NHDFs (FIG. 4)” value [4]?
**A.** > 30000 ng/mL

**Q.** And the “Granulation and collagen at cut wound site (HE staining)” value (cut-wound model, SD rats)?
**A.** increased compared to Saline

**Q.** And the “Thickening in stratum spinosum epidermidis (HE staining)” value (cut-wound model, SD rats)?
**A.** less than the saline group

**Q.** What about the “Ratio of peptide remaining relative to the starting concentration, human serum, 0 min” value ([5]; 500 μg/mL, 0 min) of the same compound?
**A.** 100

**Q.** And the remaining at 0.05 h, 500 μg/mL ([5]; human, human serum, 3 min, read-out: Ratio of peptide remaining relative to the starting concentration, human serum, 3 min)?
**A.** 95%

**Q.** What about the remaining at 10 min, 500 μg/mL ([5]; human, human serum, 10 min, read-out: Ratio of peptide remaining relative to the starting concentration, human serum, 10 min) of the same compound?
**A.** 65.8%

**Q.** And the half-life ([5]; human, serum, 500 μg/mL)?
**A.** 16 min

**Q.** And the “Granulation tissue formation (wet weight around paper disc, FIGS. 5 and 6)” value [6]?
**A.** promoted granulation tissue formation in vivo
